Where two headings read alike, the source gives them in different places.
How the values were obtained:
[1] = target: IKZF1 adjoined to nanoluciferase (Nluc) (Homo sapiens (Human), UniProt Q13422); experiment: IKZF1 Dual Luciferase Assay; assay type: cell-based; details: 4 hours; read-out: Nluc/Fluc IKZF1 IC50
Procedure: Transduced cells were selected with puromycin at 2 μg/mL and expanded. […] Cells were incubated with compound for 4 hours at 37° C., 5% CO2 and then allowed to cool to room temperature. To each plate was added 25 μL of Fluc buffer (200 mM Tris, 15 mM MgSO4, 100 uM EDTA, 1 mM DTT, 1 mM ATP, 200 uM Coenzyme A, 400 uM D-Luciferin, 0.1% Trition X-100).

CRBN-DDB1/BRD4 = CRBN-DDB1/BRD4 (Homo sapiens (Human), UniProt O60885+Q96SW2); experiment: CRBN-DDB1/BRD4 Dimerization Assay; assay type: binding;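 note: AlphaScreen proximity signal between GST-tagged BRD4 and CRBN-DDB1 with glutathione donor and nickel chelate acceptor beads, read after 1 hr compound incubation at room temperature, values from Gaussian curve fit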
[2] = target: fusion of mutant FKBP12 to nanoluciferase (Homo sapiens (Human), UniProt P62942+Q96SW2, F36V); experiment: FKBP Dual Luciferase Assay (mutant FKBP12, 36V); assay type: cell-based; details: for Dmax: read-out: Max Degradation (dual luciferase, %) FKBP 36V;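 for all read-outs here: cells exposed to rising degrader concentrations, FKBP12 fusion level read as NLuc/FLuc signal ratio, lower ratio means more degradation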
Procedure: The cells were treated with increasing concentrations of various dFKBPs for 4 hours. The amount of NLuc and FLuc was measured, and the abundance of the FKBP12-HA-NLuc was quantified by calculating the signal ratio of NLuc/FLuc.

[3] = target: BRD4 adjoined to nanoluciferase (Nluc) (Homo sapiens (Human), UniProt O60885+Q96SW2); experiment: BRD4 Dual Luciferase Assay; assay type: cell-based
Procedure: Transduced cells were selected with puromycin and expanded. […] Cells were incubated with compound for 4 hours at 37° C., 5% CO2 and then allowed to cool to room temperature. To each plate was added 25 μL of Fluc buffer (200 mM Tris, 15 mM MgSO4, 100 uM EDTA, 1 mM DTT, 1 mM ATP, 200 uM Coenzyme A, 400 uM D-Luciferin, 0.1% Trition X-100).

[4] = Gaussian fit of dimerization signal
[5] = Gaussian fit parameter of dimerization signal
[6] = FKBP 36V, 4 hours, read-out: DC50 (nM) FKBP 36V

O=C1CCC(N2C(=O)c3cccc(F)c3C2=O)C(=O)N1 [Compound D-14, 2-(2,6-dioxopiperidin-3-yl)-4-fluoroisoindoline-1,3-dione]
DC50 [1]: > 50000 nM

CC(=O)NCc1cccc2c1C(=O)N(C1CCC(=O)NC1=O)C2=O [Compound D-23, N-((2-(2,6-dioxopiperidin-3-yl)-1,3-dioxoisoindolin-4-yl)methyl)acetamide]
DC50 [1]: 1020 nM

CC[C@@H]1C(=O)N(C)c2cnc(Nc3ccc(C(=O)NCCCCNC(=O)COc4cccc5c4C(=O)N(C4CCC(=O)NC4=O)C5=O)cc3OC)nc2N1C1CCCC1 (stereo partly shown) [dBET2]
Dimer Amplitude (CRBN-DDB1/BRD4; [4]): 20549 | Dimer Mean (CRBN-DDB1/BRD4; [4]): −7.428 | Dimer SD (CRBN-DDB1/BRD4; [5]): 0.7005

CC[C@H](C(=O)N1CCCC[C@H]1C(=O)O[C@H](CCc1ccc(OC)c(OC)c1)c1cccc(OCC(=O)NCCCCCCCCNC(=O)COc2cccc3c2C(=O)N(C2CCC(=O)NC2=O)C3=O)c1)c1cc(OC)c(OC)c(OC)c1 (stereo partly shown) [c1FKBP*-9]
DC50 ([2]; read-out: DC50 (nM) FKBP 36V, 4 hours): 3.9 nM

CC(=O)Nc1cccc2c1C(=O)N(C1CCC(=O)NC1=O)C2=O [Compound D-3, N-(2-(2,6-dioxopiperidin-3-yl)-1,3-dioxoisoindolin-4-yl)acetamide]
DC50 [1]: 444 nM

Cc1cccc2c1C(=O)N(C1CCC(=O)NC1=O)C2=O [Compound D-19, 2-(2,6-dioxopiperidin-3-yl)-4-methylisoindoline-1,3-dione]
DC50 [1]: 111 nM

Cc1sc2c(c1C)C(c1ccc(Cl)cc1)=N[C@@H](CC(=O)NCCCCCCOc1cccc3c1C(=O)N(C1CCC(=O)NC1=O)C3=O)c1nnc(C)n1-2 (stereo partly shown) [dBET29]
Conc@Emax ([3]; concentration at Emax): 0.05 µM | Dimer Amplitude (CRBN-DDB1/BRD4; [4]): 1454 | Dimer Mean (CRBN-DDB1/BRD4; [4]): −7.756 | Dimer SD (CRBN-DDB1/BRD4; [5]): 0.7393

Cc1nc2ccccc2c(=O)n1C1CC(=O)NC1=O [Compound D-11, 3-(2-methyl-4-oxoquinazolin-3(4H)-yl)pyrrolidine-2,5-dione]
DC50 [1]: > 50000 nM

Cc1sc2c(c1C)C(c1ccc(Cl)cc1)=N[C@@H](CC(=O)NCCCCOc1cccc3c1C(=O)N(C1CCC(=O)NC1=O)C3=O)c1nnc(C)n1-2 (stereo partly shown) [dBET28]
Conc@Emax ([3]; concentration at Emax): 0.001581 µM | Dimer Amplitude (CRBN-DDB1/BRD4; [4]): 1752 | Dimer Mean (CRBN-DDB1/BRD4; [4]): −7.037 | Dimer SD (CRBN-DDB1/BRD4; [5]): 1.263

Cc1sc2c(c1C)C(c1ccc(Cl)cc1)=N[C@@H](CC(=O)NCCCCCCNC(=O)COc1cccc3c1C(=O)N(C1CCC(=O)NC1=O)C3=O)c1nnc(C)n1-2 (stereo partly shown) [dBET5]
Conc@Emax ([3]; concentration at Emax): 1.581 µM | Dimer Amplitude (CRBN-DDB1/BRD4; [4]): 18644 | Dimer Mean (CRBN-DDB1/BRD4; [4]): −6.277 | Dimer SD (CRBN-DDB1/BRD4; [5]): 0.4127

CC[C@H](C(=O)N1CCCC[C@H]1C(=O)OC(CCc1ccc(OC)c(OC)c1)c1cccc(OCC(=O)NCc2ccc(CNC(=O)COc3cccc4c3C(=O)N(C3CCC(=O)NC3=O)C4=O)cc2)c1)c1cc(OC)c(OC)c(OC)c1 (stereo partly shown) [dFKBP*-21]
DC50 [2, 6]: 15 nM | Dmax ([2]; FKBP 36V, 4 hours): 91%

Cc1c(C(=O)NCCCCNC(=O)COc2cccc3c2C(=O)N(C2CCC(=O)NC2=O)C3=O)sc2c1C(c1ccc(Cl)cc1)=N[C@@H](CC(=O)NCCCN1CCN(C)CC1)c1nnc(C)n1-2 (stereo partly shown) [dBET30]
DC50 ([3]; Dual Luciferase, 4 hours): 2100 nM | Conc@Emax ([3]; concentration at Emax): 50 µM | pDC50 (dual luc) ([3]; dual luc, 4 hours): 5.679 | Dimer Amplitude (CRBN-DDB1/BRD4; [4]): 30326 | Dimer Mean (CRBN-DDB1/BRD4; [4]): −7.422 | Dimer SD (CRBN-DDB1/BRD4; [5]): 0.8533

O=C1CCC(N2C(=O)c3ccc(F)cc3C2=O)C(=O)N1 [Compound D-24, 2-(2,6-dioxopiperidin-3-yl)-5-fluoroisoindoline-1,3-dione]
DC50 [1]: > 50000 nM

Cc1sc2c(c1C)C(c1ccc(Cl)cc1)=N[C@@H](CC(=O)NCCCCCCNC(=O)c1ccc3c(c1)C(=O)N(C1CCC(=O)NC1=O)C3=O)c1nnc(C)n1-2 (stereo partly shown) [dBET15]
Conc@Emax [3]: 5 µM | Dimer Amplitude (CRBN-DDB1/BRD4): 13540 | Dimer Mean (CRBN-DDB1/BRD4): −7.111 | Dimer SD (CRBN-DDB1/BRD4): 0.6279

O=C1CCC(N2C(=O)c3cccc(O)c3C2=O)C(=O)N1 [Compound D-1, 2-(2,6-dioxopiperidin-3-yl)-4-hydroxyisoindoline-1,3-dione]
DC50 [1]: > 50000 nM

O=C1CCC(N2C(=O)c3cccc([N+](=O)[O-])c3C2=O)C(=O)N1 [Compound D-10, 2-(2,6-dioxopiperidin-3-yl)-4-nitroisoindoline-1,3-dione]
DC50 [1]: > 50000 nM

O=C1CCC(N2C(=O)c3ccc(C(=O)O)cc3C2=O)C(=O)N1 [Compound D-13, 2-(2,6-dioxopiperidin-3-yl)-1,3-dioxoisoindoline-5-carboxylic acid]
DC50 [1]: > 50000 nM

CC(=O)Nc1ccc2c(c1)C(=O)N(C1CCC(=O)NC1=O)C2=O [Compound D-5, N-(2-(2,6-dioxopiperidin-3-yl)-1,3-dioxoisoindolin-5-yl)acetamide]
DC50 [1]: > 50000 nM

CC(C)Nc1ccc2c(c1)C(=O)N(C1CCC(=O)NC1=O)C2=O [Compound D-26, 2-(2,6-dioxopiperidin-3-yl)-5-(isopropylamino)isoindoline-1,3-dione]
DC50 [1]: > 50000 nM

Cc1sc2c(c1C)C(c1ccc(Cl)cc1)=N[C@@H](CC(=O)NCCNC(=O)COc1cccc3c1C(=O)N(C1CCC(=O)NC1=O)C3=O)c1nnc(C)n1-2 (stereo partly shown) [dBET3]
Conc@Emax ([3]; concentration at Emax): 0.5 µM | Dimer Amplitude (CRBN-DDB1/BRD4; [4]): 16389 | Dimer Mean (CRBN-DDB1/BRD4; [4]): −7.497 | Dimer SD (CRBN-DDB1/BRD4; [5]): 0.6763

O=C1CCC(N2C(=O)c3ccc(C(=O)NCc4ccccc4)cc3C2=O)C(=O)N1 [Compound D-15, N-benzyl-2-(2,6-dioxopiperidin-3-yl)-1,3-dioxoisoindoline-5-carboxamide]
DC50 [1]: > 50000 nM

CC[C@H](C(=O)N1CCCC[C@H]1C(=O)O[C@H](CCc1ccc(OC)c(OC)c1)c1cccc(OCC(=O)NCCOCCOc2cccc3c2C(=O)N(C2CCC(=O)NC2=O)C3=O)c1)c1cc(OC)c(OC)c(OC)c1 (stereo partly shown) [dFKBP*-19]
DC50 [2, 6]: 1.7 nM | Dmax ([2]; FKBP 36V, 4 hours): 94%

Cc1sc2c(c1C)C(c1ccc(Cl)cc1)=N[C@@H](CC(=O)NCCCCCCCCOc1cccc3c1C(=O)N(C1CCC(=O)NC1=O)C3=O)c1nnc(C)n1-2 (stereo partly shown) [dBET21]
Dimer Amplitude (CRBN-DDB1/BRD4; [4]): 758.9 | Dimer Mean (CRBN-DDB1/BRD4; [4]): −6.306 | Dimer SD (CRBN-DDB1/BRD4; [5]): 1.327

O=C1CCC(N2C(=O)c3ccc(NCc4ccccc4)cc3C2=O)C(=O)N1 [Compound D-25, 5-(benzylamino)-2-(2,6-dioxopiperidin-3-yl)isoindoline-1,3-dione]
DC50 [1]: > 50000 nM

Cc1nc2ccccc2c(=O)n1C1CCC(=O)NC1=O [Compound D-9, 3-(2-methyl-4-oxoquinazolin-3(4H)-yl)piperidine-2,6-dione]
DC50 [1]: 7610 nM

O=C1CCC(N2C(=O)c3cccc(NCc4ccccc4)c3C2=O)C(=O)N1 [Compound D-16, 4-(benzylamino)-2-(2,6-dioxopiperidin-3-yl)isoindoline-1,3-dione]
DC50 [1]: 23.9 nM

CC[C@H](C(=O)N1CCCC[C@H]1C(=O)O[C@H](CCc1ccc(OC)c(OC)c1)c1cccc(OCC(=O)NCCOCCOCCOc2cccc3c2C(=O)N(C2CCC(=O)NC2=O)C3=O)c1)c1cc(OC)c(OC)c(OC)c1 (stereo partly shown) [dFKBP*-15]
DC50 [2, 6]: 28 nM | Dmax ([2]; FKBP 36V, 4 hours): 66%

CC[C@H](C(=O)N1CCCC[C@H]1C(=O)OC(CCc1ccc(OC)c(OC)c1)c1cccc(OCC(=O)NCCCCCCCC(=O)Nc2cccc3c2C(=O)N(C2CCC(=O)NC2=O)C3=O)c1)c1cc(OC)c(OC)c(OC)c1 (stereo partly shown) [dFKBP*-20]
DC50 [2, 6]: 17 nM | Dmax ([2]; FKBP 36V, 4 hours): 75.7%

CCN(CC)c1cccc2c1C(=O)N(C1CCC(=O)NC1=O)C2=O [Compound D-21, 4-(diethylamino)-2-(2,6-dioxopiperidin-3-yl)isoindoline-1,3-dione]
DC50 [1]: 140 nM

O=C1CCC(N2C(=O)c3ccc([N+](=O)[O-])cc3C2=O)C(=O)N1 [Compound D-2, 2-(2,6-dioxopiperidin-3-yl)-5-nitroisoindoline-1,3-dione]
DC50 [1]: > 50000 nM

CC[C@H](C(=O)N1CCCC[C@H]1C(=O)OC(CCc1ccc(OC)c(OC)c1)c1cccc(OCC(=O)NCCCCC(=O)Nc2cccc3c2C(=O)N(C2CCC(=O)NC2=O)C3=O)c1)c1cc(OC)c(OC)c(OC)c1 (stereo partly shown) [dFKBP*-16]
DC50 [2, 6]: 99 nM | Dmax ([2]; FKBP 36V, 4 hours): 38%

Cc1sc2c(c1C)C(c1ccc(Cl)cc1)=N[C@@H](CC(=O)NCCCOCCOCCOCCCNC(=O)COc1cccc3c1C(=O)N(C1CCC(=O)NC1=O)C3=O)c1nnc(C)n1-2 (stereo partly shown) [dBET9]
Dimer Amplitude (CRBN-DDB1/BRD4; [4]): 16889 | Dimer Mean (CRBN-DDB1/BRD4; [4]): −7.496 | Dimer SD (CRBN-DDB1/BRD4; [5]): 0.5198

CC[C@H](C(=O)N1CCCC[C@H]1C(=O)OC(CCc1ccc(OC)c(OC)c1)c1cccc(OCC(=O)NCCCCOc2cccc3c2C(=O)N(C2CCC(=O)NC2=O)C3=O)c1)c1cc(OC)c(OC)c(OC)c1 (stereo partly shown) [dFKBP*-18]
DC50 [2, 6]: 6.4 nM | Dmax ([2]; FKBP 36V, 4 hours): 80%

CC[C@H](C(=O)N1CCCC[C@H]1C(=O)OC(CCc1ccc(OC)c(OC)c1)c1cccc(OCC(=O)NCCCCCCOc2cccc3c2C(=O)N(C2CCC(=O)NC2=O)C3=O)c1)c1cc(OC)c(OC)c(OC)c1 (stereo partly shown) [dFKBP*-13]
DC50 [2, 6]: 1.2 nM | Dmax ([2]; FKBP 36V, 4 hours): 83%

CC[C@H](C(=O)N1CCCC[C@H]1C(=O)OC(CCc1ccc(OC)c(OC)c1)c1cccc(OCC(=O)NCCCOCCCNC(=O)COc2cccc3c2C(=O)N(C2CCC(=O)NC2=O)C3=O)c1)c1cc(OC)c(OC)c(OC)c1 (stereo partly shown) [dFKBP*-17]
DC50 [2, 6]: 69 nM | Dmax ([2]; FKBP 36V, 4 hours): 64%

O=C1CCC(N2C(=O)c3cccc(CNC(=O)C4CC4)c3C2=O)C(=O)N1 [Compound D-22, N-((2-(2,6-dioxopiperidin-3-yl)-1,3-dioxoisoindolin-4-yl)methyl)cyclopropanecarboxamide]
DC50 [1]: 534 nM

CC[C@H](C(=O)N1CCCC[C@H]1C(=O)OC(CCc1ccc(OC)c(OC)c1)c1cccc(OCC(=O)NCCCCCCCCCCOc2cccc3c2C(=O)N(C2CCC(=O)NC2=O)C3=O)c1)c1cc(OC)c(OC)c(OC)c1 (stereo partly shown) [dFKBP*-14]
DC50 [2, 6]: 57 nM | Dmax ([2]; FKBP 36V, 4 hours): 85%

CCN(CC)c1ccc2c(c1)C(=O)N(C1CCC(=O)NC1=O)C2=O [Compound D-27, 5-(diethylamino)-2-(2,6-dioxopiperidin-3-yl)isoindoline-1,3-dione]
DC50 [1]: > 50000 nM
